Patent publication US6184209A, “Diabetes treatment” (Alizyme Therapeutics Limited, priority 1996, dated 2001)
Where a SMILES comes first, the peptide text is derived from it.

Key:
[1] = tested on: subjects with non-insulin dependent diabetes mellitus (type II); details: type II diabetics, cited from earlier work
dopamine-depleted rats = details: rat, in vivo; cited from earlier work
urodele limb = details: in vivo; cited from earlier work
[2] = tested on: Isolated soleus muscles--male mice; assay: 2-deoxy-D-[1-3H]glucose uptake into isolated soleus muscles, male mice; type: cell-based; details: 10^-9 M
Protocol: (§1) Isolated soleus, EDL (extensor digitorum longus) or diaphragm muscles of normal male and female mice were incubated for 30 min at 37° C. in oxygenated Krebs buffer containing 2-deoxy-D-[1-^3 H]glucose. 2-Deoxy-D-glucose is a derivative of D-glucose which is taken up into muscle by carrier-mediated transport and which accumulates in muscle as 2-deoxy-D-glucose-6-phosphate without further metabolism. The tritiated derivative can therefore be used to determine the uptake into muscle of D-glucose (which itself is metabolised). A COOH-terminal (C-terminal) fragment of β-endorphin and an analogue of a β-endorphin fragment were added to the Krebs buffer. These were the C-terminal dipeptide (glycyl-L-glutamine or glycyl-L-glutamic acid) and CH3 CO-Lys-D-Lys-Sar-Glu, a stable analogue of the C-terminal tetrapeptide of β-endorphin. Pyruvate (2 mM) and 2% bovine serum albumen were also present in the bathing medium surrounding the muscles. The extracellular space in the muscles was determined by including L-[1-^14 C] glucose, which is not transported into muscle via the D-glucose membrane carrier.
(§2) At the end of the incubation period, the tissue samples were digested in 1 M NaOH at 90° C. and the radioactivity counted by liquid scintillation counting.
a) Isolated soleus muscles--male mice

EDL muscles--male mice = assay: 2-deoxy-D-[1-3H]glucose uptake into EDL muscles, male mice; type: cell-based; details: 10^-9 M
Protocol: as §1, §2
c) EDL muscles--male mice

EDL muscles--female mice = assay: 2-deoxy-D-[1-3H]glucose uptake into EDL muscles, female mice; type: cell-based; details: 10^-7 M; for increase in the uptake of 2-deoxy-D-glucose into the muscles (%): normal female mice
Protocol: as §1, §2
d) EDL muscles--female mice
Following the procedure outlined in Example 1, it was shown that Gly-Gin in a concentration of 10^-7 M caused a 180% increase in 2-deoxy-D-glucoseuptake in EDL muscles of normal female mice, whilst with Gly-Glu there was an 80% increase.

[3] = tested on: Diaphragm muscles--female mice; assay: 2-deoxy-D-[1-3H]glucose uptake into diaphragm muscles, female mice; type: cell-based; details: 10^-8 M
Protocol: as §1, §2
e) Diaphragm muscles--female mice

[4] = tested on: Isolated soleus muscles--female mice; assay: 2-deoxy-D-[1-3H]glucose uptake into isolated soleus muscles, female mice; type: cell-based; details: 10^-8 M
Protocol: as §1, §2
b) Isolated soleus muscles--female mice

[5] = 2.5 mg by intravenous bolus injection

β-endorphin (YGGFMTSEKSQTPLVTLFKNAIIKNAYKKGE; Beta-endorphin; UniProt P01189 237-267, looked up) [human β-endorphin]
duration of increments in plasma insulin and glucagon [1, 5]: up to 90 minutes | plasma concentrations of insulin and glucagon [1, 5]: prompt and simultaneous increments | progressive decline in plasma glucose: effect of administration ([1]; administration one hour after start of three hour study period): substantially unaffected

Lys-Lys-Gly-Glu (KKGE; printed: Lys-Lys-Gly-Glu) [MPF]
turning response of dopamine-depleted rats to D-amphetamine (dopamine-depleted rats): significant reductions | urodele limb regeneration (urodele limb): promoting

insulin
increase in the uptake of 2-deoxy-D-glucose into the muscles (%) [2]: 500% | increase in the uptake of 2-deoxy-D-glucose into the muscles (fold) [2]: 6 fold | increase in the uptake of 2-deoxy-D-glucose into the muscles (%) (EDL muscles--male mice): 150% | increase in the uptake of 2-deoxy-D-glucose into the muscles (fold) (EDL muscles--male mice): 2.5 fold | increase in the uptake of 2-deoxy-D-glucose into the muscles (fold) (EDL muscles--female mice; female mice): 3.5 fold | increase in the uptake of 2-deoxy-D-glucose into the muscles (%) (EDL muscles--female mice): 250% | increase in the uptake of 2-deoxy-D-glucose into the muscles (fold) [3]: similar | increase in the uptake of 2-deoxy-D-glucose into the muscles (%) [4]: ~100% | increase in the uptake of 2-deoxy-D-glucose into the muscles (fold) [4]: approximately 2 fold

NCC(=O)N[C@@H](CCC(=O)O)C(=O)O [Gly-Glu, glycyl-L-glutamic acid] (H-Gly-Glu-OH)
increase in the uptake of 2-deoxy-D-glucose into the muscles (%) (EDL muscles--female mice): 80%

NCC(=O)N[C@@H](CCC(N)=O)C(=O)O [Gly-Gin, glycyl-L-glutamine] (H-Gly-Gln-OH)
increase in the uptake of 2-deoxy-D-glucose into the muscles (%) (EDL muscles--female mice): 180%
